# Patent US11572353B2, “Alkynyl-substituted heterocyclic compound, preparation method therefor and medical use thereof” (BEIJING INNOCARE PHARMA TECH CO., LTD., priority 2016, dated 2023)
# “Also recorded” adds a separate entry of the source. Where two headings read alike, the source gives them in different places.
# What was measured:
# [1] = biological target: human recombinant FGFR2 catalytic domain protein (amino acid 400-821) (Homo sapiens (Human), UniProt P21802); experiment: FGFR2 activity inhibition test (HTRF kinase assay); assay type: biochemical; details: 50 μM ATP
# Protocol: (§1) The effect of the compounds of the present invention on the in vitro activity of FGFR was assessed by measuring the phosphorylation level of the substrate in a kinase reaction using the HTRF kinase assay kit (Table 1).
# (§2) If the IC50 value of a compound is very low, the initial concentration of the compound can be lowered.
# (§3) The IC50 value of the compound was calculated from the 10 concentration points using the XLfit software in Excel by the following formula: Y=Bottom+(Top−Bottom)/(1+10^((log IC50−X)*slope factor))
# (§4) Where Y is the percentage of inhibition, Bottom is the bottom platform value of the S-curve, Top is the top platform value of the S-curve, X is the logarithm of the concentration of the compound to be tested, and slope factor is the slope coefficient of the curve.
# [2] = biological target: human recombinant FGFR3 catalytic domain protein (amino acid 399-806) (Homo sapiens (Human), UniProt P22607); experiment: FGFR3 activity inhibition test (HTRF kinase assay); assay type: biochemical; details: 90 μM ATP
# Protocol: as §1, §2, §3, §4
# [3] = test system: RT4 bladder cancer cell line; experiment: Inhibition on the proliferation of RT4 cells (luminescent cell viability assay); assay type: cell-based; details: Homo sapiens, RT-4, 72 hours
# Protocol: (§5) CellTilter-Glo reagent (Promega, Cat. No. G7572) consists of CTG lyophilized powder and CTG buffer. Before use, the lyophilized powder needs to be dissolved in the buffer.
# (§6) After overnight incubation, 3 μL of DMEM diluted compound was added to each well, which was then gently centrifuged to mix well, and then the 384-well plate was placed in a 37° C., 5% CO2 incubator to continue the culture, and after 72 hours, the plate was taken out and allowed to stand at room temperature for 30 minutes, next added 15 μL of CTG reagent per well, which was warmed up to room temperature, the plate was shaken gently on a shaker for 3 minutes to ensure sufficient cell lysis, allowed to stand 10 minutes to stabilize the luminescence signal, and then read the luminescence signal with EnVision (Perkin Elmer).
# as §4
# The effect of the compounds of the present invention on cell proliferation of the RT4 bladder cancer cell line was assessed using a luminescent cell viability assay (Table 2).
# (§7) For the experimental method, please refer to the method for determining the inhibition on the proliferation of Hep3B cells.
# [4] = biological target: human recombinant FGFR1 catalytic domain protein (amino acid 308-731) (Homo sapiens (Human), UniProt P11362); experiment: FGFR1 activity inhibition test (HTRF kinase assay); assay type: biochemical; details: 40 μM ATP
# Protocol: as §1, §2, §3, §4
# [5] = biological target: human recombinant FGFR4 catalytic domain protein (amino acid 460-802) (Homo sapiens (Human), UniProt P22455); experiment: FGFR4 activity inhibition test (HTRF kinase assay); assay type: biochemical; details: 90 μM ATP
# Protocol: as §1, §2, §3, §4
# [6] = test system: FGFR2-overexpressed SNU-16 gastric cancer cell line derived xenograft tumors; assay type: in vivo; details: for TGI % (tumor growth inhibition) / mean tumor size: day 25
# Protocol: The cells were harvested in 90% confluence and no less than 90% viability, and then counted. […] Mice were inoculated subcutaneously into the right flank with 200 uL of 8×10^6 SNU-16 cells resuspended in 50% Matrigel (purchased from Corning). […] Dosing was initiated on day 0 and effects on tumor growth were evaluated by measuring the percentage of tumor growth inhibition (TGI) at the end of the study. Tolerability was assessed by body weight loss, lethality, and clinical signs of adverse treatment-related side effects. Tumor volume and body weight were measured twice per week during the administration period. The percentage of TGI was determined on day 25 after treatment. The difference between the mean value of tumor volume in the treatment group and that in the vehicle group was analyzed for significance using one-way ANOVA (followed by Dennett's test) at each time point and a P<0.05 was considered to be statistically significant.
# Hep3B hepatoma cell line = experiment: Inhibition on the proliferation of Hep3B cells (luminescent cell viability assay); assay type: cell-based; details: Homo sapiens, 72 hours
# Protocol: The effect of the compounds of the present invention on cell proliferation of Hep3B hepatoma cell line was assessed using a luminescent cell viability assay (Table 2).
# as §5, §6, §4
# [7] = test system: SNU-16 gastric cancer cell line; experiment: Inhibition on the proliferation of SNU-16 cells (luminescent cell viability assay); assay type: cell-based; details: Homo sapiens, 72 hours
# Protocol: as §5, §6, §4
# The effect of the compounds of the present invention on cell proliferation of SNU-16 gastric cancer cell line was assessed using a luminescent cell viability assay (Table 2).
# as §7
# Chain of human recombinant FGFR3 catalytic domain protein (amino acid 399-806) (P22607 399-806): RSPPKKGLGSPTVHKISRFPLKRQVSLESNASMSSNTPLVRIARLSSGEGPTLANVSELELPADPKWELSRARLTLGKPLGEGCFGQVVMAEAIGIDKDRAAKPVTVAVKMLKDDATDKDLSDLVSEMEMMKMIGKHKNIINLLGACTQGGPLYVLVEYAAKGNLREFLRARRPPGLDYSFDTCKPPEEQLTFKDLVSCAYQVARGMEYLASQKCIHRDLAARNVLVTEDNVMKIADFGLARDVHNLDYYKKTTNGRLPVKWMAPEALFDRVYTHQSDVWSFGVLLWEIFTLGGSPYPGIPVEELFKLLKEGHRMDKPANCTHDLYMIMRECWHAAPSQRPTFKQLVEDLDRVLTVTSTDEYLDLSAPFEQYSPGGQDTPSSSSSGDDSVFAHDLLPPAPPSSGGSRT
# Chain of human recombinant FGFR2 catalytic domain protein (amino acid 400-821) (P21802 400-821): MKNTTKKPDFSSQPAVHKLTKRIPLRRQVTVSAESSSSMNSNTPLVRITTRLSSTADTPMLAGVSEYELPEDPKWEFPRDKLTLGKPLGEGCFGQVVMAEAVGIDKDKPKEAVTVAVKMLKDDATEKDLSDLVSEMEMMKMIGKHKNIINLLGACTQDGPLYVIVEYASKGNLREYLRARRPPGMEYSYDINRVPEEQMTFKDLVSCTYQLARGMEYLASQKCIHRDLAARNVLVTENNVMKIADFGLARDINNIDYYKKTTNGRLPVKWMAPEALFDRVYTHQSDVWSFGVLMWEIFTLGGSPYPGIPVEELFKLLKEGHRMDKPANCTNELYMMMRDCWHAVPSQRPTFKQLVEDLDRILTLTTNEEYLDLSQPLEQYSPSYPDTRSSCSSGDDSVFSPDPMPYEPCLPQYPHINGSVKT
# Chain of human recombinant FGFR4 catalytic domain protein (amino acid 460-802) (P22455 460-802): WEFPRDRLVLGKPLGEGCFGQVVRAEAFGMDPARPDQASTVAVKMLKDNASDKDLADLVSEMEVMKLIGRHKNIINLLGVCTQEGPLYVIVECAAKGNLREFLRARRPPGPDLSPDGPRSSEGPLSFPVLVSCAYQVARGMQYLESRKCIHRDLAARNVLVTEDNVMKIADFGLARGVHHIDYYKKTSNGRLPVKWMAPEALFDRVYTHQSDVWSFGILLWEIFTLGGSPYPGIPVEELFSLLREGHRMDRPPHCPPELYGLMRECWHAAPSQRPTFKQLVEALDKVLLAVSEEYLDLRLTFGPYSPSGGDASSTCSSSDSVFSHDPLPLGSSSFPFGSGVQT
# Chain of human recombinant FGFR1 catalytic domain protein (amino acid 308-731) (P11362 other isoform, or with tags, fused parts or gaps): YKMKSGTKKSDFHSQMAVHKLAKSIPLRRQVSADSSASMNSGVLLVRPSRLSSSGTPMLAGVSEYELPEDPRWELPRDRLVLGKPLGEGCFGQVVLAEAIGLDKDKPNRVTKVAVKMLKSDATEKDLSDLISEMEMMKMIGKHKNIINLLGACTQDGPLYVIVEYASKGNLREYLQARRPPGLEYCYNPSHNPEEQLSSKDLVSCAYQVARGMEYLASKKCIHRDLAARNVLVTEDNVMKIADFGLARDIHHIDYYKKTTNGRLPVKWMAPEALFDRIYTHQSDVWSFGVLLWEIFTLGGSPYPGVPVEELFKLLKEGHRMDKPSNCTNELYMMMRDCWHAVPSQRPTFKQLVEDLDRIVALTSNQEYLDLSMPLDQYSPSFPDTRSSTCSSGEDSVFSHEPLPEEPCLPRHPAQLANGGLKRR
structure (smiles),measurement,setting,value
"C=CC(=O)N1CC[C@H](n2nc(C#Cc3cc(OC)cc(OC)c3)c(C(N)=O)c2NC)C1 [Compound 21, (S)-1-(1-acryloylpyrrolidin-3-yl)-3-((3,5-dimethoxyphenyl)ethynyl)-5-(methylamino)-1H-pyrazole-4-carboxamide]",IC50,[1],< 10 nM
same,IC50,[2],< 10 nM
same,IC50,[3],< 10 nM
same,IC50,[4],< 10 nM
same,IC50,[5],< 10 nM
same,TGI % (tumor growth inhibition),[6]; 0.3 mg/kg oral BID for 25 days,91.0%
same,mean tumor size,[6]; 0.3 mg/kg oral BID for 25 days,240 mm^3
same,TGI % (tumor growth inhibition),[6]; 1 mg/kg oral BID for 25 days,88.3%
same,mean tumor size,[6]; 1 mg/kg oral BID for 25 days,261 mm^3
same,TGI % (tumor growth inhibition),[6]; 3 mg/kg oral BID for 25 days,95.9%
same,mean tumor size,[6]; 3 mg/kg oral BID for 25 days,200 mm^3
same,locomotor activities,[6]; 10 mg/kg BID,without significant decrease of locomotor activities
same,mean body weight loss,[6]; 10 mg/kg BID,11%
same,TGI % (tumor growth inhibition),[6]; 10 mg/kg oral BID for 25 days,108%
same,mean tumor size,[6]; 10 mg/kg oral BID for 25 days,103 mm^3
same,anti-tumor activity (overall),"[6]; 0.3, 1, 3 and 10 mg/kg oral BID",dose-dependently reduced tumor size; also recorded: marked anti-tumor activities
same,body weight loss,"[6]; 3, 1 and 0.3 mg/kg BID, during the study",no body weight loss
same,tolerability,"[6]; 3, 1 and 0.3 mg/kg BID, tumor-bearing animals",well-tolerated
same,tolerability (overall summary),"[6]; tumor-bearing animals, summary of study",well-tolerated
same,IC50,Hep3B hepatoma cell line,< 10 nM
same,IC50,[7],< 10 nM
